Columns and labels:
SK-N-MC cells = assay: Inhibition of camptothecin-induced apoptosis by flow cytometry (propidium iodide, sub-G1); type: cell-based, human; details: Homo sapiens, camptothecin 50 μM, 6 h, at 4 μg/ml, read-out: maximum inhibition of apoptosis relating to apoptosis caused by camptothecin (flow cytometry)
Experimental: To that end, the inhibition caused by the NST0005 compound of apoptosis caused by the treatment with camptothecin (Campt) was analyzed. The SK-N-MC cells, not exceeding 15 passages, were seeded on 6-well plates treated for adherent cells with a cell concentration of 8×10^5 cells/well; 2 wells of the plate were seeded for each condition of the assay.
After 24 h of cell incubation at 37° C. and 5% CO2 the cell treatments were performed with 2 ml of total volume for the following conditions: (i), control (culture medium); (ii), camptothecin [50 μM]; (iii) camptothecin [50 μM] and Z-VAD-fmk [50 μM] (Alexis), as positive control of inhibition; and (iv), 50 μM camptothecin with NST0005 at different concentrations [4, 10, 40 and 100 μg/ml].
The cells were incubated (at 37° C. and 5% CO2) with these treatments for 6 h, after which time they were pooled together with their culture medium and centrifuged at 300×g for 5 minutes. The medium was removed, a washing was performed with phosphate buffered saline (PBS) and they were fixed for 2 minutes with 500 μl of 70% ethanol at −20° C. […] After this time, they were analyzed by flow cytometry, comparing the fluorescence of the propidium iodine against the amount of DNA. The percentage of apoptosis was measured on the sub-G1 region of each of the conditions. […]

[1] = tested on: caspase 3/7 activation in SK-N-MC cells; assay: Inhibition of camptothecin-induced caspase 3/7 activation (Apo-ONE kit); type: cell-based, human; details: Homo sapiens, 24 h pretreatment at 100 μg/ml, then camptothecin 50 μM 6 h
Experimental: To that end, the inhibition caused by (1S,3R,7S,8S,8aR)-1,2,3,7,8,8a-hexahydro-3,7-dimethyl-8-[2-[(2R,4R)-tetrahydro-4-hydroxy-6-oxo-2H-pyran-2-yl]ethyl-1-naphthalenyl 2,2-dimethylpropanoate (NST0005) of apoptosis caused by the treatment with camptothecin (Campt) on the SK-N-MC cells in culture was analyzed following the working conditions specified in section 3.1. Apoptosis can be quantified by measuring effector caspase activation. Caspases (proteins belonging to the cysteine-protease group) mediate the cleavage of a series of proteins triggering the signaling cascade which leads cells to apoptosis. […] The active cellular caspases 3 or 7 cause the cleavage of the substrate, emitting fluorescence which is read by means of a fluorometer.
The effect of the pretreatment of the NST0005 compound at 40 and 100 μg/ml on caspase 3/7 activation caused by 50 μM of camptothecin (Campt) in the SK-N-MC cells was thus analyzed. […]
The cells were incubated (at 37° C. and 5% CO2) with these treatments for 6 h, after which time the lysis buffer and the substrate rhodamine 110 were added at the concentrations specified by the manufacturer; they were incubated at room temperature for 30 minutes and the cells were then frozen at −20° C. overnight. They were thawed the next day and the reading of the plate was taken in a fluorometer at 499 nm for excitation and 521 nm for emission.

[2] = tested on: human neuroblastoma SK-N-MC cells; assay: Protection against neuronal death induced by apoptosis (camptothecin), WST-1 test; type: cell-based; details: camptothecin 20 nM, 22 h, at 10 μg/ml, protection at 4, 10 and 40 μg/ml
Experimental: To that end, an assay was performed on human neuroblastoma SK-N-MC cells in culture from the ATCC (HTB-10); in all cases strict rules of sterility were followed and the manipulation was performed in class II biological safety cabinets following European standard EN 12469. The cells were maintained in MEM culture medium supplemented with 1 mM sodium pyruvate, 2 mM L-glutamine, 0.1 mM non-essential amino acids, 0.05 mg/ml gentamicin and 10% fetal bovine serum.
The inhibition caused by the compound (1S,3R,7S,8S,8aR)-1,2,3,7,8,8a-hexahydro-3,7-dimethyl-8-[2-[(2R,4R)-tetrahydro-4-hydroxy-6-oxo-2H-pyran-2-yl]ethyl-1-naphthalenyl 2-methylpropanoate (NST0004) of cell death caused by treatment with camptothecin (Campt), which inhibits the topoisomerase I enzyme by preventing duplication of the DNA, which triggers apoptic cell death, was analyzed. […]
The cells were incubated (at 37° C. and 5% CO2) with these treatments for 22 h, after which time the WST-1 reagent (Roche) was added. […] The metabolically active (live) cells reduce tetrazolium salt to formazan by means of the succinate-tetrazolium reductase system (of the mitochondrial respiratory chain) and the formazan which is formed can be detected colorimetrically since it has an absorbance of 440 nm. The reading was taken in a plate reader at 440 nm 2 hours after adding the reagent. […]

C[C@H]1C=C2C=C[C@H](C)[C@H](CC[C@@H]3C[C@@H](O)CC(=O)O3)[C@H]2[C@@H](OC(=O)C(C)(C)C)C1 [NST0005]
inhibition at 4 µg/mL (SK-N-MC cells): 17%
inhibition at 100 µg/mL [1]: 33%

CC(C)C(=O)O[C@H]1C[C@@H](C)C=C2C=C[C@H](C)[C@H](CC[C@@H]3C[C@@H](O)CC(=O)O3)[C@H]21 [NST0004]
maximum reduction of the percentage of cell death relating to death caused by Camptothecin [2]: 43%
